Where two headings read alike, the source gives them in different places.
Legend:
ABCA1 = ABCA1 (Mus musculus, UniProt P41233); test: cell-based
Protocol: In order to validate the prediction capabilities of the presented workflow, these 66 molecules were assessed in one of the most commonly used assessment platforms for ABCA1 function[21], namely a 25-NBD-cholesterol assay and ABCA1-expressing murine J774A.1 macrophages [TB-67, American Type Culture Collection (ATCC); cultured in Dulbecco’s modified eagle medium (DMEM; Biowest, Nuaillé, France)].

ABCB1, ABCC1, and ABCG2 = test: Specificity screen against other ABC transporters: calcein AM (A2780/ADR), daunorubicin (H69AR) and pheophorbide A (MDCK II BCRP) assays; format: cell-based; settings: 10 µM compound; Supplementary Fig. S3; result in words
Excerpt: Apart from the high hit rate, potency, and structural diversity of the output molecules, it is important to note that the multitarget dataset cross-annotated the molecular-structural and physicochemical information of ligands on a multitude of targets. In order to assess its ABCA-specificity, we tested the hit compounds 4, 7, 8, 11, 13, 28, 29, 30, 32, 41, 46, 47, 50, 58, and 59 against ABC transporters of three different subfamilies, namely ABCB1, ABCC1, and ABCG2[40]. […] On the other hand, it is unlikely that the compounds bear selectivity toward ABCA1, which can be seen as opportunity to explore other ABCA transporters as well, and warrants future investigations.
Suppl ementary Fig. 3 Biological Assessment of hi t compounds 4 , 7, 8 , 11 , 13 , 28, 29, 30, 32,
cal ce i n AM (a), daunorubicin (b), and pheophorbide A (c) assays using ABCB1-expressing
A 2780/ A DR (a), A BCC 1- expressi ng H 69A R (b), and ABCG2-expressing MDCK II BCRP (c) cells as
2. Möhl e, L. , et al . ABC Transporter C1 Prevents Dimethyl Fumarate from Targeting
Alzheimer's Disease. Biology (Basel) 12 ( 7) , 932,
(1 picture or pasted object on this page, not shown here)

[1] = IC50, full concentration-effect curves, Fig. 4(b), mean ± SEM of at least three independent experiments, J774A.1 cells

Sequence of ABCA1 (P41233 whole entry): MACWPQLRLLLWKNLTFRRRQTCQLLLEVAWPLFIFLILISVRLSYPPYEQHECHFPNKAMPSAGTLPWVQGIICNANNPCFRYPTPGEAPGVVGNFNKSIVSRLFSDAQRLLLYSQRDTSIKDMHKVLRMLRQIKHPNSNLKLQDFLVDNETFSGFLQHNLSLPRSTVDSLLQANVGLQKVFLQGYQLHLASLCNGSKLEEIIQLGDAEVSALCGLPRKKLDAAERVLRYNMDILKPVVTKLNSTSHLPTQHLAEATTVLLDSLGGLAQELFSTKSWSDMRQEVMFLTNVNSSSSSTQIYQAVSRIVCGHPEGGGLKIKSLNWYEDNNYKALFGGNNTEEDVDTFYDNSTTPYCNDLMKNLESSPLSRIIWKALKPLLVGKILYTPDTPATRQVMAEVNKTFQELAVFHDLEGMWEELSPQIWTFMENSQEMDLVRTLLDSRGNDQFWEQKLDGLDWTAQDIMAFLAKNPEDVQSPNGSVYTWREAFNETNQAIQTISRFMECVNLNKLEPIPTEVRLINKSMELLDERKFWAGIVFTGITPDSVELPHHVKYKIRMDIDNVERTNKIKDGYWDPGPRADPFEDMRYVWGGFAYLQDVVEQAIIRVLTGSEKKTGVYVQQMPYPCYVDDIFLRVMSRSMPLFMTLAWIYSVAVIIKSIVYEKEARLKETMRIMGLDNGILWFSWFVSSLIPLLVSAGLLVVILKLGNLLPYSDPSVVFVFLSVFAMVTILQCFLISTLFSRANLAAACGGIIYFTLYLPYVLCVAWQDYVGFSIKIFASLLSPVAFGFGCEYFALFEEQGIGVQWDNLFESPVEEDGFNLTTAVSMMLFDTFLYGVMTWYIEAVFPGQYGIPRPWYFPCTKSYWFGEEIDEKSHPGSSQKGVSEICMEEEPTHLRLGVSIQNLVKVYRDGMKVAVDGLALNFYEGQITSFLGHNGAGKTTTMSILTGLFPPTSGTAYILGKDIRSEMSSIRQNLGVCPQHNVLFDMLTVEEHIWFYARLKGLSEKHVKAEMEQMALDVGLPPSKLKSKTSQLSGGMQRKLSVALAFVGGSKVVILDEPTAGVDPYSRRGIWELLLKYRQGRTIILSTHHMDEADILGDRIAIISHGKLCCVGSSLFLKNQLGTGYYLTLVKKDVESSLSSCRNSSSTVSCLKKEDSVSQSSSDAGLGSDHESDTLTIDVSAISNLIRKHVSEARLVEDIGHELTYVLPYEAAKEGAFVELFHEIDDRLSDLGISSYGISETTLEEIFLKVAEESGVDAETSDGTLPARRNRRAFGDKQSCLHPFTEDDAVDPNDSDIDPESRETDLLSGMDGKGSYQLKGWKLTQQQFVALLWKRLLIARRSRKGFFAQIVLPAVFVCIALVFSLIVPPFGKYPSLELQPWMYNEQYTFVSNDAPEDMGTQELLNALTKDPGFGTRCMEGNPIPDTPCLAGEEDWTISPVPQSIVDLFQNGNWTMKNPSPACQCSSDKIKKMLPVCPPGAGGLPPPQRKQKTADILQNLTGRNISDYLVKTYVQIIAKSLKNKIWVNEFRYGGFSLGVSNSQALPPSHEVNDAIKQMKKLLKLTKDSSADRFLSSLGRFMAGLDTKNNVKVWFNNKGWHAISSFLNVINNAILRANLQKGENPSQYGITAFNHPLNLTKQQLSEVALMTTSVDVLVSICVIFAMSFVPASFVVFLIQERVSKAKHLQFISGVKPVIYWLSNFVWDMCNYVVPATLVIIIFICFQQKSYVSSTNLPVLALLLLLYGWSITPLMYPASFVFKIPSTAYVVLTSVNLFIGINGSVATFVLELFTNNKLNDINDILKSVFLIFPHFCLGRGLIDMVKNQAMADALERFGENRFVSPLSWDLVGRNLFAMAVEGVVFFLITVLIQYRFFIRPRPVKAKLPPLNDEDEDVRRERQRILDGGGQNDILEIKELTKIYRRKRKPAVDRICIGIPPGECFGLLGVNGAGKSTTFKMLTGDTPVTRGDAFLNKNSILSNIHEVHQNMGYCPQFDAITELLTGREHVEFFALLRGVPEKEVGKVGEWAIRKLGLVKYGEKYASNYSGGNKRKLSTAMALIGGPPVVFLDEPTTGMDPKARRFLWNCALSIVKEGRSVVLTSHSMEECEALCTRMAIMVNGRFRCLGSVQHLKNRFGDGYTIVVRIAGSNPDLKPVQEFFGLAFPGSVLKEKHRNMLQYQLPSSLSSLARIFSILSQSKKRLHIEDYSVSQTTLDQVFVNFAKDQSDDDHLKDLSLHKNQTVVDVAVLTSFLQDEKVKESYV

Row | Structure (SMILES) | IC50 (ABCA1) [µM] | IC50 (ABCA1; [1]) [µM] | inhibition of other ABC transporters (ABCB1, ABCC1, ABCG2) (ABCB1, ABCC1, and ABCG2)
1 | COc1cc(OC)c2cc(C(=O)N3C[C@@H](O)CC4(CCCC4)C3)[nH]c2c1OC [Compound 47] | 21.5 ± 3.4 | 18.9 ± 2.3 | 
2 | COc1ccc2c(N3C[C@H](O)[C@H](O)CC4(CCCC4)C3)ncnc2c1F [Compound 59] | 9.12 ± 2.9 | 21.2 ± 0.6 | significant inhibition against either two or three of the assessed transporters
3 | COCCc1ccc(OCC(O)CNC(=O)C2CC(F)(F)CCC2(C)C)cc1 (centres unmarked) [Compound 11] | 5.08 ± 0.62 | 8.76 ± 1.04 | least inhibition of other ABC transporters

Source: article PMC11116543, “Computer-aided pattern scoring – A multitarget dataset-driven workflow to predict ligands of orphan targets” (Scientific Data, 2024)
